In patent US20180185327A1, “FORMULATION COMPRISING PARTICLES AND A LIPASE INHIBITOR” (PERORA GMBH, priority 2015, published 2018):
Where two headings read alike, the source gives them in different places.

Assays:
[1] = High fat diet feeding experiments in rats (cream chow with orlistat, with or without polymer or lipid granulate); format: in vivo, male wistar rats; settings: Ex. 3.2: four rats, cream chow 50% fat with added orlistat 0.6 mg/g chow, seven days
Procedure: Animals (male rats) were kept in cages on standard animal bedding (two animals per cage or individual housing) and were provided with ad libitum access to food and water. Animal food was provided as pellets in a pellet rack or as a cream or as granulate powder each filled in a container attached to the inside of the cage.
Body weight was recorded at beginning and end of experiments. Food consumption was documented daily except for weekends. Experiments were performed according to German laws of animal protection.
Rodent chow was purchased from ssniff Spezialdiaten GmbH, Germany; poly(acrylic acid) (PAA, Carbopol® 971 P NF) was obtained from the Lubrizol Corporation, USA; and HPMC (AnyAddy®) was obtained from Harke Pharma, Germany. Orlistat (Hexal, Germany) was purchased in a local pharmacy. Hard fat/tripalmitin (Dynasan® 116), triglyceride (Witepsol® E85), glycerol monooleate (Imwitor®990), and Xanthan were obtained from NRC/Jungbunzlauer, Germany. Glycerol monolaurate (GML 90 food) was obtained from Mosselman, Belgium. Resistant dextrin (Nutriose® FB06) was obtained from Barentz, Germany or Barentz, Netherlands.

[2] = cited from earlier work
[3] = after an oral dose; cited from earlier work

CCCCCCCCCCC[C@@H](C[C@@H]1OC(=O)[C@H]1CCCCCC)OC(=O)[C@H](CC(C)C)NC=O [orlistat]
body weight lost (±SD) [1]: 2.5±1.4% | mean daily food intake [1]: 23.6 g | dietary fat prevented from being absorbed ([2]; standard over-the-counter dose of 60 mg): about 25% | dietary fat prevented from being absorbed ([2]; standard prescription dose of 120 mg three times daily before meals): approximately 30% | amount absorbed systemically [3]: Only trace amounts
